Results taken from patent US20150315218A1, “SALTS OF PRODRUGS OF PIPERAZINE AND SUBSTITUTED PIPERIDINE ANTIVIRAL AGENTS” (Bristol-Myers Squibb Company, priority 2004, published 2015).
Values joined by “and” are separate entries in the source; they are usually repeats but may differ in a detail not shown here. Equal entries are not always repeated. “Also recorded” adds a separate entry of the source. Structures can show the parent of a compound that is named as a salt.

What was measured:
[1] = Stability (hydrolysis) of prodrug in fresh serum (human); conditions: Human Serum
[2] = Effect of food on oral absorption of IVa in dogs after Iab or IVa capsules; format: in vivo, dog
Method: To study the effect of food on the oral absorption of IVa after administration of Iab and IVa, these two compounds were administered in capsules as solid to a group of three dogs in a cross-over fashion under overnight fasting and fed conditions. There was a one-week washout period between each study. Iab was administered at 200 mg per dog (ca 20 mg/kg) of IVa equivalent; IVa was administered in a clinical capsule formulation at 200 mg per dog (ca 20 mg/kg). In the studies where the dogs were fed, the following meal was prepared: 2 slices of bacon, 2 eggs, 2 pieces of toast with butter and jelly, 4 oz. hash browns and 8 oz. of whole milk. After homogenization using a laboratory blender, the meal was equally divided into five portions and kept frozen. Before the study, the meals were thawed and each dog was fed one portion.

[3] = Aqueous / crystalline solubility; conditions: aqueous solution
[4] = Stability of prodrug in fresh EDTA blood (monkey); conditions: Monkey EDTA blood
in vitro [5] = conditions: rat, serum
[6] = Stability of prodrug in fresh EDTA blood (rat); conditions: for Iab / IVa Formed: Rat EDTA blood
dog hepatocytes = assay: Hydrolysis of prodrug in hepatocytes (dog); format: in vitro ADME; conditions: dog hepatocytes, qualitative
Method: (§1) The in vitro intrinsic clearance of Ibb in hepatocytes (Clint) was calculated as follows: Clint(μL/min/million cells)=Rate/CE where Rate is the rate of metabolism in hepatocytes (pmol/min/million cells), and CE is the concentration of Ibb in the incubation. The in vitro intrinsic clearance of Icb in hepatocytes (Clint) was calculated as follows: Clint(μL/min/million cells)=Rate/CE where Rate is the rate of metabolism in hepatocytes (pmol/min/million cells), and CE is the concentration of Icb in the incubation.

[7] = Stability of prodrug in fresh EDTA blood (dog); conditions: dog blood, 37°C, 60 min (Iab) or 90 min (Ibb, Icb)
in vitro [8] = conditions: dog, serum
[9] = Solution and solid stability; format: physicochemical
monkey hepatocytes = assay: Hydrolysis of prodrug in hepatocytes (monkey); format: in vitro ADME; conditions: monkey hepatocytes, qualitative
Method: as §1

[10] = Stability (hydrolysis) of prodrug in fresh serum (monkey); conditions: Monkey Serum

- Iab / IVa Formed ([1]; 37°C, 0 min): 9.5 µM
- Iab / IVa Formed ([1]; 15 min): 9.2 µM
- Iab / IVa Formed ([1]; 30 min): 9.0 µM
- Iab / IVa Formed ([1]; 45 min): 9.6 µM
- Iab / IVa Formed ([1]; 60 min): 9.1 µM
- Iab / IVa Formed ([1]; 90 min): 9.4 µM
- AUC of IVa from Iab capsules (fasted dogs) relative to fed dogs given IVa clinical capsule ([2]; 200 mg/dog of IVa equivalent): 4 times
- Cmax of IVa from Iab capsules (fasted dogs) relative to fed dogs given IVa clinical capsule ([2]; 200 mg/dog of IVa equivalent): 6 times
- Cmax of IVa from Iab capsules relative to IVa clinical capsule in fasted dogs ([2]; fasted dogs, 200 mg/dog of IVa equivalent): 58 times
- Iab / IVa Formed ([4]; 0 min): 8.5 µM
- Iab / IVa Formed ([4]; 20 min): 9.2 µM
- Iab / IVa Formed ([4]; 40 min): 9.2 µM
- Iab / IVa Formed ([4]; 60 min): 8.7 µM
- half-life at 10 μM (in vitro [5]): 1.33 h
- Iab / IVa Formed ([6]; 37°C, 0 min): 8.0 µM
- Iab / IVa Formed ([6]; 20 min): 8.8 µM
- Iab / IVa Formed ([6]; 40 min): 10 µM
- Iab / IVa Formed ([6]; 60 min): 10 µM
- conversion of prodrug to parent in blood containing EDTA ([6]; rat blood, 37°C, 60 min (Iab) or 90 min (Ibb, Icb)): < 2% and 1.2%
- hydrolysis in the presence of hepatocytes (dog hepatocytes): hydrolyzed
- conversion of prodrug to parent in blood containing EDTA [7]: approximately 6%
- half-life at 10 μM (in vitro [8]): 3.03 h
- hydrolysis in the presence of hepatocytes (monkey hepatocytes): hydrolyzed
- Iab / IVa Formed ([10]; 37°C, 0 min): 9.0 µM
- Iab / IVa Formed ([10]; 15 min): 7.3 µM
- Iab / IVa Formed ([10]; 30 min): 6.8 µM
- Iab / IVa Formed ([10]; 45 min): 6.5 µM
- Iab / IVa Formed ([10]; 60 min): 6.3 µM
- Iab / IVa Formed ([10]; 90 min): 6.3 µM
SMILES: COc1cnc(OC)c2c1c(C(=O)C(=O)N1CCN(C(=O)c3ccccc3)CC1)cn2COP(=O)(O)O [Iab, {3-[(4-benzoylpiperazin-1-yl)(oxo)acetyl]-4,7-dimethoxy-1H-pyrrolo[2,3-c]pyridin-1-yl}methyl dihydrogen phosphate, L-lysine salt (1:1)]
- difference in AUC and Cmax of IVa between fasted and fed dogs ([2]; dogs receiving Iab capsules): No significant differences; also recorded: not significantly different
- concentration of aqueous solutions prepared for in vivo toxicology studies [3]: > 100 mg/mL
- solution and solid stabilities [9]: acceptable solution and solid stabilities
